In article PMC9897788, “Design, synthesis and cytotoxic evaluation of novel bis-thiazole derivatives as preferential Pim1 kinase inhibitors with in vivo and in silico study” (Journal of Enzyme Inhibition and Medicinal Chemistry, 2023):

How the values were obtained:
[1] = tested on: Breast T47D cancer cell line; test: In vitro inhibition concentration of breast T47D cancer cell line; format: cell-based; settings: Homo sapiens
Experimental: Cells were seeded and treated with a range of inhibitors concentration 39–10,000 nM after 24 h relative to DMSO. […]

[2] = tested on: NCI-H460; test: NCI 60 cell one-dose screening (SRB); format: cell-based; settings: Homo sapiens; NCI-H460, Non-Small Cell Lung Cancer; single dose 10 µM, 48 h; read-out: Percentage of cellular growth inhibition
Outline: (§1)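 Inhibition percentages derive from SRB-stained cell mass: growth relative to no-drug wells, computed as (Ti−Tz)/(C−Tz)×100, or (Ti−Tz)/Tz×100 when Ti<Tz, then subtracted from 100. Compound level was 10 µM for 48 h in RPMI 1640 medium with 5% serum.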

[3] = tested on: CAKI-1; test: NCI 60 cell one-dose screening (SRB); format: cell-based; settings: Homo sapiens; CAKI-1, Renal Cancer; single dose 10 µM, 48 h; read-out: Percentage of cellular growth inhibition
Outline: as §1

[4] = tested on: OVCAR-5; test: NCI 60 cell one-dose screening (SRB); format: cell-based; settings: Homo sapiens; OVCAR-5, Ovarian Cancer; single dose 10 µM, 48 h; read-out: Percentage of cellular growth inhibition
Outline: as §1

[5] = tested on: BT-549; test: NCI 60 cell one-dose screening (SRB); format: cell-based; settings: Homo sapiens; BT-549, Breast Cancer; single dose 10 µM, 48 h; read-out: Percentage of cellular growth inhibition
Outline: as §1

[6] = tested on: OVCAR-3; test: NCI 60 cell one-dose screening (SRB); format: cell-based; settings: Homo sapiens; OVCAR-3, Ovarian Cancer; single dose 10 µM, 48 h; read-out: Percentage of cellular growth inhibition
Outline: as §1

[7] = tested on: OVCAR-4; test: NCI 60 cell one-dose screening (SRB); format: cell-based; settings: Homo sapiens; OVCAR-4, Ovarian Cancer; single dose 10 µM, 48 h; read-out: Percentage of cellular growth inhibition
Outline: as §1

[8] = tested on: LOX IMVI; test: NCI 60 cell one-dose screening (SRB); format: cell-based; settings: Homo sapiens, Melanoma, single dose 10 µM, 48 h, read-out: Percentage of cellular growth inhibition
Outline: as §1

[9] = tested on: HL-60(TB); test: NCI 60 cell one-dose screening (SRB); format: cell-based; settings: Homo sapiens, Leukemia, single dose 10 µM, 48 h, read-out: Percentage of cellular growth inhibition
Outline: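 Absorbance of bound sulphorhodamine B at 515 nm served as the read-out after 48 h of treatment with 10 µM compound. Growth % used a time-zero plate (Tz) fixed at drug addition and the untreated control; inhibition % equals 100 minus that growth.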

[10] = tested on: CCRF-CEM; test: NCI 60 cell one-dose screening (SRB); format: cell-based; settings: Homo sapiens, Leukemia, single dose 10 µM, 48 h, read-out: Percentage of cellular growth inhibition
Outline: as §1

[11] = tested on: HOP-62; test: NCI 60 cell one-dose screening (SRB); format: cell-based; settings: Homo sapiens; HOP-62, Non-Small Cell Lung Cancer; single dose 10 µM, 48 h; read-out: Percentage of cellular growth inhibition
Outline: as §1

[12] = tested on: SK-MEL-2; test: NCI 60 cell one-dose screening (SRB); format: cell-based; settings: Homo sapiens; SK-MEL-2, Melanoma; single dose 10 µM, 48 h; read-out: Percentage of cellular growth inhibition
Outline: as §1

[13] = tested on: MALME-3M; test: NCI 60 cell one-dose screening (SRB); format: cell-based; settings: Homo sapiens, Melanoma, single dose 10 µM, 48 h, read-out: Percentage of cellular growth inhibition
Outline: as §1

[14] = tested on: NCI-H322M; test: NCI 60 cell one-dose screening (SRB); format: cell-based; settings: Homo sapiens, Non-Small Cell Lung Cancer, single dose 10 µM, 48 h, read-out: Percentage of cellular growth inhibition
Outline: as §1

[15] = tested on: OVCAR-8; test: NCI 60 cell one-dose screening (SRB); format: cell-based; settings: Homo sapiens; OVCAR-8, Ovarian Cancer; single dose 10 µM, 48 h; read-out: Percentage of cellular growth inhibition
Outline: as §1

[16] = tested on: SR; test: NCI 60 cell one-dose screening (SRB); format: cell-based; settings: Homo sapiens, Leukemia, single dose 10 µM, 48 h, read-out: Percentage of cellular growth inhibition
Outline: as §1

[17] = tested on: PC-3; test: NCI 60 cell one-dose screening (SRB); format: cell-based; settings: Homo sapiens; PC-3, Prostate Cancer; single dose 10 µM, 48 h; read-out: Percentage of cellular growth inhibition
Outline: as §1

[18] = tested on: SF-268; test: NCI 60 cell one-dose screening (SRB); format: cell-based; settings: Homo sapiens; SF-268, CNS Cancer; single dose 10 µM, 48 h; read-out: Percentage of cellular growth inhibition
Outline: as §1

[19] = tested on: T-47D; test: NCI 60 cell one-dose screening (SRB); format: cell-based; settings: Homo sapiens, T47D, 48 h, Breast Cancer, single dose 10 µM, read-out: Percentage of cellular growth inhibition
Outline: as §1

[20] = tested on: NCI-H23; test: NCI 60 cell one-dose screening (SRB); format: cell-based; settings: Homo sapiens; NCI-H23, Non-Small Cell Lung Cancer; single dose 10 µM, 48 h; read-out: Percentage of cellular growth inhibition
Outline: as §1

SMILES: Fc1ccc(-c2csc(Nc3cccc(Nc4nc(-c5ccc(F)cc5)cs4)c3)n2)cc1 [6b, N^1,N^3-bis(4–(4-fluorophenyl)thiazol-2-yl)benzene-1,3-diamine]
- IC50 ([1]; 48 h): 5.92 µM
- IC50 ([1]; 96 h): 1.61 µM
- melting point: 80 to 83 °C
- inhibition at 10 µM [2]: 59.6%
- inhibition at 10 µM [3]: 53.6%
- inhibition at 10 µM [4]: 34.5%
- inhibition at 10 µM [5]: 36%
- inhibition at 10 µM [6]: 42.5%
- inhibition at 10 µM [7]: 44.3%
- inhibition at 10 µM [8]: 60.7%
- inhibition at 10 µM [9]: 25.7%
- inhibition at 10 µM [10]: 40.9%
- inhibition at 10 µM [11]: 27.3%
- inhibition at 10 µM [12]: 65.3%
- inhibition at 10 µM [13]: 17%
- inhibition at 10 µM [14]: 39.9%
- inhibition at 10 µM [15]: 32.1%
- inhibition at 10 µM [16]: 48.6%
- inhibition at 10 µM [17]: 64.8%
- inhibition at 10 µM [18]: 42.1%

SMILES: Clc1ccc(-c2cs/c(=N\c3ccccc3)n2-c2cccc(-n3c(-c4ccc(Cl)cc4)cs/c3=N\c3ccccc3)c2)cc1 [8c, N,N’-(3,3’-(1,3-phenylene)bis(4–(4-chlorophenyl)thiazole-3(3H)-yl-2(3H)-ylidene))dianiline]
- melting point: 120 to 121 °C
- inhibition at 10 µM [2]: 0.1%
- inhibition at 10 µM [3]: 9%
- inhibition at 10 µM [4]: -2.6%
- inhibition at 10 µM [5]: -15.5%
- inhibition at 10 µM [6]: -6.6%
- inhibition at 10 µM [7]: 12%
- inhibition at 10 µM [8]: 50.6%
- inhibition at 10 µM [9]: 41.8%
- inhibition at 10 µM [10]: 32.6%
- inhibition at 10 µM [11]: -3.3%
- inhibition at 10 µM [12]: -9.6%
- inhibition at 10 µM [19]: 8.9%
- inhibition at 10 µM [13]: 6.7%
- inhibition at 10 µM [14]: -1.2%
- inhibition at 10 µM [15]: 7.9%
- inhibition at 10 µM [16]: 12.1%
- inhibition at 10 µM [17]: 28.9%
- inhibition at 10 µM [18]: 12.1%

SMILES: Cc1nc(Nc2cccc(Nc3nc(C)c(N=Nc4ccccc4)s3)c2)sc1N=Nc1ccccc1 [5a, N^1,N^3-bis(4-methyl-5-(phenyldiazenyl)thiazol-2-yl)benzene-1,3-diamine]
- IC50 ([1]; 48 h): 10.4 µM
- IC50 ([1]; 96 h): 4.35 µM
- melting point: 115 to 116 °C
- inhibition at 10 µM [2]: 3.2%
- inhibition at 10 µM [3]: 54.8%
- inhibition at 10 µM [4]: 19.8%
- inhibition at 10 µM [5]: 5.8%
- inhibition at 10 µM [6]: 26%
- inhibition at 10 µM [20]: 14.7%
- inhibition at 10 µM [7]: 30.8%
- inhibition at 10 µM [9]: 5.5%
- inhibition at 10 µM [10]: 12.3%
- inhibition at 10 µM [11]: 9.3%
- inhibition at 10 µM [12]: -6.7%
- inhibition at 10 µM [19]: 48%
- inhibition at 10 µM [13]: -7.7%
- inhibition at 10 µM [14]: 22.8%
- inhibition at 10 µM [15]: 33.4%
- inhibition at 10 µM [17]: -3.3%
- inhibition at 10 µM [18]: 42.4%

SMILES: c1ccc(-c2csc(Nc3cccc(Nc4nc(-c5ccccc5)cs4)c3)n2)cc1 [6a, N^1,N^3-bis(4-phenylthiazol-2-yl)benzene-1,3-diamine]
- IC50 ([1]; 48 h): 6.58 µM
- IC50 ([1]; 96 h): 1.78 µM
- melting point: 92 to 94 °C
- inhibition at 10 µM [2]: 73.1%
- inhibition at 10 µM [3]: 65.1%
- inhibition at 10 µM [4]: 35.5%
- inhibition at 10 µM [5]: 68.3%
- inhibition at 10 µM [6]: 46.8%
- inhibition at 10 µM [20]: 63.2%
- inhibition at 10 µM [7]: 62.4%
- inhibition at 10 µM [9]: 34.1%
- inhibition at 10 µM [10]: 61.4%
- inhibition at 10 µM [11]: 27%
- inhibition at 10 µM [12]: 35.1%
- inhibition at 10 µM [13]: 47.2%
- inhibition at 10 µM [14]: 41.9%
- inhibition at 10 µM [15]: 60.1%
- inhibition at 10 µM [17]: 67.9%
- inhibition at 10 µM [18]: 59.4%

SMILES: c1ccc(/N=c2\scc(-c3ccccc3)n2-c2cccc(-n3c(-c4ccccc4)cs/c3=N\c3ccccc3)c2)cc1 [8a, N,N’-(3,3’-(1,3-phenylene)bis(4-phenylthiazole-3(3H)-yl-2(3H)-ylidene))dianiline]
- melting point: 110 to 111 °C
- inhibition at 10 µM [2]: -6.3%
- inhibition at 10 µM [3]: 25.4%
- inhibition at 10 µM [4]: -2.9%
- inhibition at 10 µM [5]: -31.8%
- inhibition at 10 µM [6]: -3.6%
- inhibition at 10 µM [7]: 5.3%
- inhibition at 10 µM [8]: 22.6%
- inhibition at 10 µM [9]: -4.4%
- inhibition at 10 µM [10]: -0.9%
- inhibition at 10 µM [11]: -12.6%
- inhibition at 10 µM [12]: 12.6%
- inhibition at 10 µM [19]: 10.2%
- inhibition at 10 µM [13]: 3%
- inhibition at 10 µM [14]: 1.8%
- inhibition at 10 µM [15]: -1.5%
- inhibition at 10 µM [16]: 6.1%
- inhibition at 10 µM [17]: 21.8%
- inhibition at 10 µM [18]: 0.3%

SMILES: Fc1ccc(-c2cs/c(=N\c3ccccc3)n2-c2cccc(-n3c(-c4ccc(F)cc4)cs/c3=N\c3ccccc3)c2)cc1 [8b, N,N’-(3,3’-(1,3-phenylene)bis(4–(4-fluorophenyl)thiazole-3(3H)-yl-2(3H)-ylidene))dianiline]
- IC50 ([1]; 48 h): 9.8 µM
- IC50 ([1]; 96 h): 2.61 µM
- inhibition at 10 µM [2]: 37.5%
- inhibition at 10 µM [3]: 22.2%
- inhibition at 10 µM [4]: 14%
- inhibition at 10 µM [5]: -4.1%
- inhibition at 10 µM [6]: 4.1%
- inhibition at 10 µM [7]: 34.7%
- inhibition at 10 µM [8]: 23.9%
- inhibition at 10 µM [9]: 15.8%
- inhibition at 10 µM [10]: 35.2%
- inhibition at 10 µM [11]: -4.6%
- inhibition at 10 µM [12]: 22.2%
- inhibition at 10 µM [19]: 51%
- inhibition at 10 µM [13]: 7.5%
- inhibition at 10 µM [14]: 15.2%
- inhibition at 10 µM [15]: 12.4%
- inhibition at 10 µM [16]: 36.1%
- inhibition at 10 µM [17]: 32.1%
- inhibition at 10 µM [18]: 8.7%
